Test results published in PubChem BioAssay AID1602 (NINDS Approved Drug Screening Program, 2009).
Inconclusive results are not listed. Peptide text beside a SMILES is read from it.

Tested on: mutant SOD1 toxicity cell model, protection read-out
Experiment: attenuators of mutant SOD1 toxicity, cell-based (AID 1602)

`CC(COc1ccccc1)NC(C)[C@H](O)c1ccc(O)cc1` (some centres undefined) and `CC(CCc1ccccc1)NCC(O)c1ccc(O)c(C(N)=O)c1` (centres undefined) are the same in EC50: 50 µM for the first, 50 µM for the second.

`C[C@H](CCC(=O)O)[C@H]1CCC2C3C(=O)CC4CC(=O)CC[C@]4(C)C3CC(=O)[C@@]21C` (some centres undefined) and `COC(=O)C1[C@H]2C[C@H]3c4[nH]c5ccccc5c4CCN3C[C@@H]2CC[C@@H]1O` (some centres undefined) are the same in EC50: 50 µM for the first, 50 µM for the second.

`CC(=O)N[C@@H](CS)C(=O)O` and `CN[C@H](CC(=O)O)C(=O)O` are the same in EC50: 50 µM for the first, 50 µM for the second.

`O=C(O)c1ccccc1OP(=O)(O)O` and `CC(C(=O)O)c1cccc(C(=O)c2ccccc2)c1` (centres undefined) are the same in EC50: 75 µM for the first, 75 µM for the second.

`CC(=O)OCC1=C(C(=O)O)N2C(=O)[C@@H](NC(=O)CSc3ccncc3)[C@H]2SC1` and `CO/N=C(/C(=O)NC1C(=O)N2C(C(=O)O)=C(COC(N)=O)CSC12)c1ccco1` (centres undefined) are the same in EC50: 50 µM for the first, 50 µM for the second.

`CN1C2CCC1CC(OC(=O)C(CO)c1ccccc1)C2` (centres undefined) and `CN(C)CCOC(=O)C(c1ccccc1)C1(O)CCCC1` (centres undefined) are the same in EC50: 50 µM for the first, 50 µM for the second.

`O=C1NCC2(CCN(CCc3ccccc3)CC2)O1` and `c1ccc2c(CC3=NCCN3)cccc2c1` are the same in EC50: 50 µM for the first, 50 µM for the second.

`Cc1ccc(/C(=C\CN2CCCC2)c2ccccn2)cc1` and `Cc1ccc(C(=O)C(C)CN2CCCCC2)cc1` (centres undefined) are the same in EC50: 50 µM for the first, 50 µM for the second.

Compared with `C[C@H](CS)C(=O)N1CCC[C@H]1C(=O)O`, `CC(C)CC1NC(=O)CNC1=O` (centres undefined) is 1.5-fold lower in EC50: 75 µM for the first, 50 µM for the second. The second is the more potent here.

`CNCCc1ccccn1` and `NC(N)=NC(N)=Nc1ccccc1` are the same in EC50: 50 µM for the first, 50 µM for the second.

Compared with `CO/N=C(\C(=O)NC1C(=O)N2C(C(=O)O)=C(CSc3nc(=O)c(O)nn3C)CS[C@H]12)c1csc(N)n1` (some centres undefined), `Cn1nnnc1SCC1=C(C(=O)O)N2C(=O)C(NC(=O)C(OC=O)c3ccccc3)C2SC1` (centres undefined) is 1.5-fold lower in EC50: 75 µM for the first, 50 µM for the second.

Compared with `NCCCC(=O)O`, `NC(N)=O` is 1.5-fold higher in EC50: 50 µM for the first, 75 µM for the second. The first is the more potent here.

Going from `NCCCCC(N)C(=O)NC(Cc1ccc(O)cc1)C(=O)NC(CCCCN)C(=O)O` (stereo not drawn) (H-Lys-Tyr-Lys-OH; configuration not given here) to `CCN1CCN(C(=O)NC(C(=O)NC2C(=O)N3C(C(=O)O)=C(CSc4nnnn4C)CSC23)c2ccc(O)cc2)C(=O)C1=O` (centres undefined), the EC50 falls from 75 µM to 50 µM (1.5-fold). The second is the more potent here.

`CC[N+]1(C)CCCC(OC(=O)C(O)(c2ccccc2)c2ccccc2)C1` (centres undefined) and `CCN1C[C@@]2(COC)C3[C@@H](OC)[C@H]4[C@@H]1[C@]3(C(OC)C[C@H]2O)C1C[C@@]2(O)[C@H](OC(=O)c3ccccc3)C1[C@]4(OC(C)=O)[C@@H](O)[C@@H]2OC` (some centres undefined) are the same in EC50: 50 µM for the first, 50 µM for the second.

`COc1c2occc2c(OC)c2c(=O)cc(C)oc12` and `CCn1cc(C(=O)O)c(=O)c2cc(F)c(N3CCNCC3)cc21` are the same in EC50: 75 µM for the first, 75 µM for the second.

`Nc1ccc(S(N)(=O)=O)cc1` and `Nc1ccc(S(=O)(=O)Nc2nccs2)cc1` are the same in EC50: 50 µM for the first, 50 µM for the second.

`CC(=O)Nc1cc([As](=O)(O)O)ccc1O` and `NC[C@@H]1O[C@H](O[C@@H]2[C@@H](CO)OC(O[C@@H]3[C@@H](O)[C@H](N)C[C@H](N)[C@H]3OC3O[C@H](CN)[C@@H](O)[C@H](O)[C@H]3N)[C@@H]2O)[C@H](N)[C@@H](O)[C@@H]1O` (some centres undefined) are the same in EC50: 50 µM for the first, 50 µM for the second.
